Data reported in patent US20040072205A1, “Methods for treating neuronal disorders” (priority 2002, published 2004).

Experiments:
[1] = system: hSOD1^G93A transgenic ALS mice; assay: Minocycline treatment of ALS mice: Rotarod onset and mortality; type: in vivo, mouse
Protocol: We tested the effectiveness of minocycline on a mouse model of ALS and investigated its mechanism of neuroprotection. […] We evaluated the effect of minocycline on one of the ALS mouse models expressing the mutant human SOD1^G93A transgene. Minocycline (10 mg/kg body weight/day) was injected beginning at five weeks of age. Mutant hSOD1^G93A transgenic mice were evaluated weekly on a Rotarod to follow disease progression.
Minocycline administration started at six weeks of age at a slightly higher dose (11 mg/kg body weight/day).
ALS mice (Jackson Laboratories, Bar Harbor, Me.) were injected intraperitoneally daily with saline or minocycline (Sigma, St. Louis, Mo.). Strength and coordination were evaluated weekly by Rotarod (Columbus Instruments, Columbus, Ohio). Disease onset was defined as the first day a mouse could not remain on the Rotarod for 10 min at 15 rpm. Mortality was scored as age of death or age when the mouse was unable to right itself within 30 seconds (Li et al., supra).

[2] = system: human patients with ALS; conditions: cited from earlier work

| Compound | Onset of impaired motor performance (Rotarod), age ([1]; 10 mg/kg body weight/day i.p. from five weeks of age, saline 90.3±2.2 days, P<0.001) [days] | Survival, age ([1]; 10 mg/kg body weight/day i.p. from five weeks of age, saline 125.6±3.4 days, P<0.01) [days] | Mortality, age ([1]; modified protocol: 11 mg/kg body weight/day from six weeks of age, n=8/group, saline 126.3±2.7 days, P<0.05) [days] | side effects [2] |
| --- | --- | --- | --- | --- |
| CN(C)c1ccc(O)c2c1C[C@H]1C[C@H]3[C@H](N(C)C)C(O)=C(C(N)=O)C(=O)[C@@]3(O)C(O)=C1C2=O [Minocycline] | 109.0 ± 1.5 | 136.8 ± 1.2 | 139.0 ± 2.1 | – |
| Nc1nc2ccc(OC(F)(F)F)cc2s1 [riluzole] | – | – | – | causes liver damage |
